Measurements from PubChem BioAssay (NCI).
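Values below derive from 48-hour exposures of cells grown in 96-well plates, with endpoints linearly interpolated between the two concentrations bracketing the appropriate inhibition level. The concentration for full growth arrest is given as TGI.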

These compounds were tested on SK-MEL-28 melanoma (assay: growth of human tumour cells (NCI), 48 h).
`O=C(/C=C/c1ccccc1)C[C@@H](O)C[C@@H]1CC=CC(=O)O1` showed a TGI of 24.9 µM. In the case of `Cc1ccc(/C=C/C(=O)c2cccc3ccccc23)cc1`, the TGI is reported as 35.4 µM. `N#C/C(=C1/Sc2c(nc[nH]c2=O)N1c1ccccc1)c1nc2ccccc2[nH]1` showed a TGI greater than 100 µM. `C=CC[C@H](C[C@H](C[C@H](C[C@H](C[C@H](C[C@H](C[C@H](C[C@H](C[C@H](C[C@H](CCCCC)OC)OC)OC)OC)OC)OC)OC)OC)OC)OC` was tested, and the TGI was greater than 100 µM. For `NC1(c2cc3ccccc3s2)CCCC1`, the TGI was 48.1 µM. In the case of `C/C(CCn1[nH]c(=O)ccc1=O)=N\NC(=O)C(=O)NN`, the TGI is reported as greater than 100 µM. `Cc1ccc(-c2csc(=Nc3ccccc3)n2NC(=O)c2ccncc2)cc1` gave a TGI greater than 100 µM.

These compounds were tested on SK-MEL-5 melanoma (assay: growth of human tumour cells (NCI), 48 h).
For `O=C(/C=C/c1ccccc1)C[C@@H](O)C[C@@H]1CC=CC(=O)O1`, the TGI was 26.6 µM. In the case of `N#C/C(=C1/Sc2c(nc[nH]c2=O)N1c1ccccc1)c1nc2ccccc2[nH]1`, the TGI is reported as greater than 100 µM. `C=CC[C@H](C[C@H](C[C@H](C[C@H](C[C@H](C[C@H](C[C@H](C[C@H](C[C@H](C[C@H](CCCCC)OC)OC)OC)OC)OC)OC)OC)OC)OC)OC` gave a TGI greater than 100 µM. For `NC1(c2cc3ccccc3s2)CCCC1`, the TGI was 68.2 µM. Compound `C/C(CCn1[nH]c(=O)ccc1=O)=N\NC(=O)C(=O)NN` has a TGI greater than 100 µM. For `Cc1ccc(-c2csc(=Nc3ccccc3)n2NC(=O)c2ccncc2)cc1`, the TGI was 34.8 µM.

The compounds below were run on SK-OV-3 ovarian (assay: growth of human tumour cells (NCI), 48 h).
In the case of `O=C(/C=C/c1ccccc1)C[C@@H](O)C[C@@H]1CC=CC(=O)O1`, the TGI is reported as 38.7 µM. `Cc1ccc(/C=C/C(=O)c2cccc3ccccc23)cc1` showed a TGI of 62.5 µM. Work on `N#C/C(=C1/Sc2c(nc[nH]c2=O)N1c1ccccc1)c1nc2ccccc2[nH]1` yielded a TGI greater than 100 µM. `C=CC[C@H](C[C@H](C[C@H](C[C@H](C[C@H](C[C@H](C[C@H](C[C@H](C[C@H](C[C@H](CCCCC)OC)OC)OC)OC)OC)OC)OC)OC)OC)OC` gave a TGI greater than 100 µM. `NC1(c2cc3ccccc3s2)CCCC1` was tested, and the TGI was greater than 100 µM. For `C/C(CCn1[nH]c(=O)ccc1=O)=N\NC(=O)C(=O)NN`, the TGI was greater than 100 µM. Compound `Cc1ccc(-c2csc(=Nc3ccccc3)n2NC(=O)c2ccncc2)cc1` has a TGI greater than 100 µM.

What follows are compounds tested on SN12C renal (assay: growth of human tumour cells (NCI), 48 h).
For `O=C(/C=C/c1ccccc1)C[C@@H](O)C[C@@H]1CC=CC(=O)O1`, the TGI was 25.2 µM. Work on `Cc1ccc(/C=C/C(=O)c2cccc3ccccc23)cc1` yielded a TGI of 27.4 µM. With `N#C/C(=C1/Sc2c(nc[nH]c2=O)N1c1ccccc1)c1nc2ccccc2[nH]1` the TGI was greater than 100 µM. In the case of `C=CC[C@H](C[C@H](C[C@H](C[C@H](C[C@H](C[C@H](C[C@H](C[C@H](C[C@H](C[C@H](CCCCC)OC)OC)OC)OC)OC)OC)OC)OC)OC)OC`, the TGI is reported as greater than 100 µM. Compound `NC1(c2cc3ccccc3s2)CCCC1` has a TGI greater than 100 µM. `C/C(CCn1[nH]c(=O)ccc1=O)=N\NC(=O)C(=O)NN` showed a TGI greater than 100 µM. `Cc1ccc(-c2csc(=Nc3ccccc3)n2NC(=O)c2ccncc2)cc1` was tested, and the TGI was greater than 100 µM.

Each compound was assayed on SNB-19 CNS (assay: growth of human tumour cells (NCI), 48 h).
For `O=C(/C=C/c1ccccc1)C[C@@H](O)C[C@@H]1CC=CC(=O)O1`, the TGI was 35.7 µM. Compound `Cc1ccc(/C=C/C(=O)c2cccc3ccccc23)cc1` has a TGI of 29.6 µM. For `N#C/C(=C1/Sc2c(nc[nH]c2=O)N1c1ccccc1)c1nc2ccccc2[nH]1`, the TGI was greater than 100 µM. `C=CC[C@H](C[C@H](C[C@H](C[C@H](C[C@H](C[C@H](C[C@H](C[C@H](C[C@H](C[C@H](CCCCC)OC)OC)OC)OC)OC)OC)OC)OC)OC)OC` was tested, and the TGI was greater than 100 µM. For `NC1(c2cc3ccccc3s2)CCCC1`, the TGI was greater than 100 µM. With `C/C(CCn1[nH]c(=O)ccc1=O)=N\NC(=O)C(=O)NN` the TGI was greater than 100 µM. For `Cc1ccc(-c2csc(=Nc3ccccc3)n2NC(=O)c2ccncc2)cc1`, the TGI was greater than 100 µM.

The compounds below were run on SNB-75 CNS (assay: growth of human tumour cells (NCI), 48 h).
Compound `O=C(/C=C/c1ccccc1)C[C@@H](O)C[C@@H]1CC=CC(=O)O1` has a TGI greater than 53.7 µM. `Cc1ccc(/C=C/C(=O)c2cccc3ccccc23)cc1` showed a TGI of 34.6 µM. `N#C/C(=C1/Sc2c(nc[nH]c2=O)N1c1ccccc1)c1nc2ccccc2[nH]1` was tested, and the TGI was greater than 100 µM. `C=CC[C@H](C[C@H](C[C@H](C[C@H](C[C@H](C[C@H](C[C@H](C[C@H](C[C@H](C[C@H](CCCCC)OC)OC)OC)OC)OC)OC)OC)OC)OC)OC` showed a TGI greater than 100 µM. Work on `NC1(c2cc3ccccc3s2)CCCC1` yielded a TGI greater than 100 µM. Compound `Cc1ccc(-c2csc(=Nc3ccccc3)n2NC(=O)c2ccncc2)cc1` has a TGI greater than 88.2 µM.

These compounds were tested on SNB-78 CNS (assay: growth of human tumour cells (NCI), 48 h).
With `Cc1ccc(/C=C/C(=O)c2cccc3ccccc23)cc1` the TGI was 31.4 µM. `N#C/C(=C1/Sc2c(nc[nH]c2=O)N1c1ccccc1)c1nc2ccccc2[nH]1` showed a TGI greater than 100 µM. `C=CC[C@H](C[C@H](C[C@H](C[C@H](C[C@H](C[C@H](C[C@H](C[C@H](C[C@H](C[C@H](CCCCC)OC)OC)OC)OC)OC)OC)OC)OC)OC)OC` showed a TGI greater than 100 µM.

The compounds below were run on SR leukemia (assay: growth of human tumour cells (NCI), 48 h).
`O=C(/C=C/c1ccccc1)C[C@@H](O)C[C@@H]1CC=CC(=O)O1` gave a TGI of 11.5 µM. `Cc1ccc(/C=C/C(=O)c2cccc3ccccc23)cc1` was tested, and the TGI was 78.2 µM. `N#C/C(=C1/Sc2c(nc[nH]c2=O)N1c1ccccc1)c1nc2ccccc2[nH]1` gave a TGI greater than 100 µM. `C=CC[C@H](C[C@H](C[C@H](C[C@H](C[C@H](C[C@H](C[C@H](C[C@H](C[C@H](C[C@H](CCCCC)OC)OC)OC)OC)OC)OC)OC)OC)OC)OC` showed a TGI greater than 100 µM. Compound `NC1(c2cc3ccccc3s2)CCCC1` has a TGI of 44.2 µM.
